According to the NIST ThermoML archive (doi:10.1021/je049971a):

Assay: cn = amount concentration of the nth substance listed, in mol/dm3
Settings: 101 kPa, Liquid; for speed of sound: Pulse-echo method

NC(N)=O [urea] + O
Settings	mass density [kg/m3]	speed of sound [m/s]
283.1 K, c1 = 4.275	1069	1578.8
288.15 K, c1 = 2.065	1032	1527.2
288.15 K, c1 = 3.148	1049	1557.2
288.15 K, c1 = 4.269	1067	1587.6
288.15 K, c1 = 5.421	1084	1617
288.15 K, c1 = 7.839	1120	1676.8
288.15 K, c1 = 9.106	1138	1706.5
298.15 K, c1 = 2.059	1030	1548.9
298.15 K, c1 = 3.139	1047	1574.8
298.15 K, c1 = 4.253	1063	1601.1
298.15 K, c1 = 5.405	1081	1627.1
298.15 K, c1 = 7.802	1115	1680.3
298.15 K, c1 = 9.069	1134	1706.3
308.15 K, c1 = 2.051	1026	1564.8
308.15 K, c1 = 3.124	1041	1587.1
308.15 K, c1 = 4.232	1058	1610.9
308.15 K, c1 = 5.378	1076	1633.2
308.15 K, c1 = 7.765	1109	1680.9
308.15 K, c1 = 9.021	1128	1704.1
